Laboratory results from ChEMBL document CHEMBL1147532, “The design, preparation and SAR of novel small molecule sodium (Na(+)) channel blockers” (Bioorg Med Chem Lett, 2004).

Assays:
[1] = target: CYP3A4 (Homo sapiens, UniProt P08684); experiment: Inhibition of cytochrome P450 3A4 was determined at 2 uM
[2] = target: T1, CYP2D6 (Homo sapiens, UniProt P10635); experiment: (§1) Inhibition of cytochrome P450 2D6 at 2 uM
[3] = target: Cytochrome P450 2D6 (Homo sapiens, UniProt P10635); experiment: Predictive competitive inhibition of cytochrome P450 2D6 was determined in silico
Chain of Cytochrome P450 2D6 (P10635 whole entry): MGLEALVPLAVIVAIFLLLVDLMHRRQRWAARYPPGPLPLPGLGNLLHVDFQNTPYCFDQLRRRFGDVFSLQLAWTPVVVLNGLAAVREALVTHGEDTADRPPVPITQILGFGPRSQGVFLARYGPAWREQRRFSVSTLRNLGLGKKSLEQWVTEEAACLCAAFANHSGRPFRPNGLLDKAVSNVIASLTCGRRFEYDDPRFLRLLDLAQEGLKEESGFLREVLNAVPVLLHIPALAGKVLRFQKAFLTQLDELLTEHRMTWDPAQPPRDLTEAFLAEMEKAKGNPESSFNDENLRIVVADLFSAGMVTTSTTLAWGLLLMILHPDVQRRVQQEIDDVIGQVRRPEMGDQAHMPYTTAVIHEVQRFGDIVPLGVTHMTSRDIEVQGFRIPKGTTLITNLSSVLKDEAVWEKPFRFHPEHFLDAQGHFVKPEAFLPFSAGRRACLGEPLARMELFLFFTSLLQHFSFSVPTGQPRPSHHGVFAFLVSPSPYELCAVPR

[4] = target: T2, Sodium channel alpha subunits; brain (Types I, II, III) (Rattus norvegicus, UniProt P04775+P04774+P08104); experiment: In vitro inhibition of [3H]batrachotoxin binding to neurotoxin site 2 of sodium (Na+) channel in rat cerebral cortex membrane; assay type: cell membranes
[5] = target: T1, CYP2D6; experiment: as §1; assay type: ADME
[6] = organism: Rattus norvegicus; experiment: Inhibition of tetrodotoxin (TTX) sensitive current by the compound was determined at 10 uM using whole-cell patch clamp tests in cultured rat dorsal root ganglion (DRG); assay type: functional
[7] = organism: Rattus norvegicus; experiment: Inhibition of tetrodotoxin (TTX) resistant current by the compound was determined at 10 uM using whole-cell patch clamp tests in cultured rat dorsal root ganglion (DRG); assay type: functional
[8] = target: T2, Sodium channel alpha subunits; brain (Types I, II, III); experiment: Inhibitory concentration against [3H]batrachotoxin binding to neurotoxin site 2 of sodium (Na+) channel in vitro in rat cerebral cortex membrane at 1 uM; assay type: cell membranes

T1 sequence (P10635 whole entry): as above
Chain of CYP3A4 (P08684 whole entry): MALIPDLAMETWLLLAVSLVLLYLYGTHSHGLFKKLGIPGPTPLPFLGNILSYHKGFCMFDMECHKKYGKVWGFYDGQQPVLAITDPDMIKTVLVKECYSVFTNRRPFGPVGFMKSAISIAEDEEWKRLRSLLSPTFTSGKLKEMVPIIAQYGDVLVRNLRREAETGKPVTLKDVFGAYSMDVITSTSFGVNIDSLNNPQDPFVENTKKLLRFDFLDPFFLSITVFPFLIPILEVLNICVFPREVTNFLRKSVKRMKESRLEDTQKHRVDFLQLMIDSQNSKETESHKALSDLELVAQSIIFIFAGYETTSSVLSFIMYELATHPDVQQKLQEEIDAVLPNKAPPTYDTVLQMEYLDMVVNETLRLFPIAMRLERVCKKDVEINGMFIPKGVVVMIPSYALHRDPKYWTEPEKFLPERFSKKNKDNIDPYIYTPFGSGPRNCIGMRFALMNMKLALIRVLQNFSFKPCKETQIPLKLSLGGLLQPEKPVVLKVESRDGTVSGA

Compound | inhibition at 2 µM [1] | inhibition at 2 µM [2] | Ki [3] | IC50 [4] | inhibition at 2 µM [5] | Inhibition [6] | Inhibition [7] | IC50 [8]
COc1ccc(CNC(=O)C(c2ccc(C(F)(F)F)cc2)N2CCN(CC(O)COc3c(C)cccc3C)CC2)cc1 (stereo unspecified) | 62% | 8% | 2 µM | 0.355 µM | – | – | – | –
COc1ccc(OCC(O)CN2CCN(C(C(=O)NCc3ccccc3)c3ccc(C)cc3)CC2)cc1 (stereo unspecified) | 65% | 10% | 4 µM | 0.579 µM | – | – | – | –
Cc1cccc(C)c1OCC(O)CN1CCN(C(C(=O)NCc2ccccc2)c2ccc(F)cc2)CC1 (stereo unspecified) | 38% | 20% | 2 µM | 0.149 µM | – | – | – | –
C=CCOCC(O)CN1CCN(C(c2ccccc2)c2ccc(Cl)cc2)CC1 (stereo unspecified) | – | – | 0.1 µM | 0.401 µM | 87% | 20% | – | –
COc1ccc(OCC(O)CN2CCN(C(C(=O)NCc3ccccc3)c3ccc(C(F)(F)F)cc3)CC2)cc1 (stereo unspecified) | 68% | 13% | 2 µM | 0.429 µM | – | – | – | –
OC(COc1ccccc1)CN1CCN(C(c2ccccc2)c2ccc(C(F)(F)F)cc2)CC1 (stereo unspecified) | – | 87% | 0.6 µM | 0.893 µM | – | 61% | 57% | –
O=C(NCC(c1ccccc1)N1CCN(CC(O)COc2ccccc2)CC1)c1ccc(F)cc1 (stereo unspecified) | 61% | 9% | 7 µM | 0.363 µM | – | – | – | –
Cc1ccc(C(C(=O)NCc2ccccc2)N2CCN(CC(O)COc3c(C)cccc3C)CC2)cc1 (stereo unspecified) | 44% | 26% | 2 µM | 0.325 µM | – | – | – | –
COc1ccc(CNC(=O)C(c2ccc(C(F)(F)F)cc2)N2CCN(CC(O)COc3ccc(OC)cc3)CC2)cc1 (stereo unspecified) | 88% | 0% | 4 µM | 0.359 µM | – | – | – | –
COc1ccc(OCC(O)CN2CCN(C(C(=O)NCc3ccccc3)c3ccc(F)cc3)CC2)cc1 (stereo unspecified) | 49% | 0% | 5 µM | 0.254 µM | – | – | – | –
COc1ccc(C(=O)NCC(c2ccccc2)N2CCN(CC(O)COc3ccc(Cl)cc3)CC2)cc1 (stereo unspecified) | 96% | 47% | 4 µM | 0.538 µM | – | – | – | –
COc1ccc(CNC(=O)C(c2ccc(OC)cc2)N2CCN(CC(O)COc3c(C)cccc3C)CC2)cc1 (stereo unspecified) | 74% | 9% | 5 µM | 0.571 µM | – | – | – | –
COc1ccc(OCC(O)CN2CCN(C(CNC(=O)c3ccc(F)cc3)c3ccccc3)CC2)cc1 (stereo unspecified) | 22% | 33% | 3 µM | 0.531 µM | – | – | – | –
COc1ccc(CNC(=O)C(c2ccc(F)cc2)N2CCN(CC(O)COc3ccc(OC)cc3)CC2)cc1 (stereo unspecified) | 81% | 10% | 7 µM | 0.214 µM | – | – | – | –
COc1ccc(OC)c(S(=O)(=O)NCC(c2ccccc2)N2CCN(CC(O)COc3ccc(Br)cc3)CC2)c1 (stereo unspecified) | 100% | 25% | 30 µM | 0.522 µM | – | – | – | –
COc1ccc(OCC(O)CN2CCN(C(CNC(=O)c3ccccc3OC)c3ccccc3)CC2)cc1 (stereo unspecified) | 93% | 9% | 8 µM | 0.721 µM | – | – | – | –
COc1ccc(CNC(=O)C(c2ccc(C)cc2)N2CCN(CC(O)COc3c(C)cccc3C)CC2)cc1 (stereo unspecified) | 74% | 14% | 3 µM | 0.351 µM | – | – | – | –
O=S(=O)(NCC(c1ccc(C(F)(F)F)cc1)N1CCN(CC(O)COc2ccc(F)cc2)CC1)c1ccccc1Cl (stereo unspecified) | 92% | 56% | 10 µM | – | – | – | – | 0.076 µM
COc1ccc(OCC(O)CN2CCN(C(CNC(=O)c3ccc(OC)cc3)c3ccccc3)CC2)cc1 (stereo unspecified) | 95% | 12% | 8 µM | 0.871 µM | – | – | – | –
Cc1cccc(S(=O)(=O)NCC(c2ccc(C(F)(F)F)cc2)N2CCN(CC(O)COc3ccc(Br)cc3)CC2)c1 (stereo unspecified) | 76% | 27% | 10 µM | – | – | – | – | 0.095 µM
